Data published in article PMC9834664, “Linking medicinal cannabis to autotaxin–lysophosphatidic acid signaling” (Life Science Alliance, 2023).
Entries after “also recorded” stand apart in the source; their conditions may differ.

What was measured:
ATX-β [1] = target: T1, ATX-β (Homo sapiens, UniProt Q13822); experiment: End-point choline release assay, relative inhibition by cannabinoids; type: biochemical; conditions: 10 µM compound; for inhibition of ATX-β catalysis: LPC 18:1 200 µM; for ANOVA comparison with CTRL, ATX-β inhibition: significance threshold P 0.005
T1 construct: made in house; host or cells: HEK293-Flp-In cells, protein purified from the culture medium
Procedure: (§1) We first set out to validate the hypothesis that cannabinoids might bind ATX to modulate its catalytic function. For this, we used various cannabinoids (Fig 1A) at a fixed concentration of 10 µM for each compound in our biochemical validation with LPC 18:1 (200 µM) as substrates in an end-point assay for ATX-β (UniProt ID: Q13822-1) and ATX-γ (UniProt ID: Q13822-3) (Fig 1B and C). […] In addition, we can exclude interference of the cannabinoid compounds in our enzymatically coupled assay, as no difference is detectable in the absence of ATX and LPC (Fig S1B), performed in the presence of choline.
(§2) ATX lysophospholipase D activity was measured using choline release from LPC 18:1 and LPC 16:0 with a choline quantification kit ([Hausmann et al, 2016]) (Fig S6D). 30 nM ATX-β or ATX-γ was incubated with 200 µM LPC 18:1 or LPC 16:0 in a final volume of 100 µl buffer, which contained 50 mM Tris–HCl (pH 8.5) and 150 mM NaCl. The LPC solution was obtained by evaporating a commercial LPC chloroform solution directly in a 1.5-ml Eppendorf tube under vacuum. The dried LPC was then resuspended in water to obtain the mentioned concentration and incubated at 37°C on a shaker for 5–10 min before addition to the microplate. The cannabinoid solutions were prepared from a stock solution in ethanol or other organic solvents. After initial evaporation and/or dilution to obtain the highest concentration mentioned in the assay figure, a twofold dilution was performed in Eppendorf tubes. All the compounds were dissolved in 100% ethanol as a vehicle.
(§3) The experiments for determining relative inhibition for various cannabinoids were performed at 37°C by adding 10 µM of the cannabinoid or endocannabinoid mentioned. Released choline was detected, and the enzyme activity was determined by measuring fluorescence at λex/λem = 540/590 nm in 96-well plates, every 60 s for 50 min minimum using a CLARIOstar plate reader (BMG Labtech). Absolute values were taken at 25 min after visual inspection, and the 0-min baselines were subtracted to account for compound differences. The relative inhibition values were determined using the normalize method in GraphPad Prism (GraphPad Software, Inc.). Measurements have been performed in triplicate with three different protein preparations. All the compounds were controlled for interference of fluorescence and inhibition in the same assay conditions but in the absence of ATX and replacing LPC with choline.

ATX-γ [2] = target: T2, ATX-γ (Homo sapiens, UniProt Q13822); experiment: as above; type: biochemical; conditions: 10 µM compound; for inhibition of ATX-γ catalysis: LPC 18:1 200 µM; for ANOVA comparison with CTRL, ATX-γ inhibition: significance threshold P 0.005
T2 construct: made in house; host or cells: HEK293-Flp-In cells, protein purified from the culture medium
Procedure: as §1, §2, §3

CB1 = conditions: cited from earlier work
CB2 = conditions: cited from earlier work
[3] = test system: LPA1 receptor internalization in HA/LPA1-transfected HeLa cells; experiment: hLPA1 receptor internalization assay; type: cell-based, human
ATX-β [4] = target: T1, ATX-β; experiment: Dose–response choline release assay; type: biochemical; conditions: LPC 18:1
Procedure: (§4) ATX lysophospholipase D activity was measured using choline release from LPC 18:1 and LPC 16:0 with a choline quantification kit ([Hausmann et al, 2016]). 30 nM ATX-β or ATX-γ was incubated with 200 µM LPC 18:1 or LPC 16:0 in a final volume of 100 µl buffer, which contained 50 mM Tris–HCl (pH 8.5) and 150 mM NaCl. The LPC solution was obtained by evaporating a commercial LPC chloroform solution directly in a 1.5-ml Eppendorf tube under vacuum. The dried LPC was then resuspended in water to obtain the mentioned concentration and incubated at 37°C on a shaker for 5–10 min before addition to the microplate.
(§5) The experiment for determining apparent EC50 for various cannabinoids was performed at 37°C by adding the cannabinoid in a serial twofold dilution for each concentration. The cannabinoid solutions were prepared from a stock solution in ethanol or other organic solvents. After initial evaporation and/or dilution to obtain the highest concentration mentioned in the assay figure, a twofold dilution was performed in Eppendorf tubes. All the compounds were dissolved in 100% ethanol as a vehicle. […] For CBN, 5-DMH-CBD, and CBD, the starting concentration was 50 µM, 150 µM, and 2 mM, respectively. Released choline was detected, and the enzyme activity was determined by measuring fluorescence at λex/λem = 540/590 nm in 96-well plates, every 60 s for 50 min minimum using a CLARIOstar plate reader (BMG Labtech). Initial velocities were taken between 19 and 31 min after visual inspection. The apparent EC50 values were determined using the non-linear regression analysis method (fit: [inhibitor] versus response [three parameter]) in GraphPad Prism (GraphPad Software, Inc.). However, it should be mentioned that the relative concentrations of the different lipids/inhibitors in their physical form as micelles, liposomes, protein-bound, or aggregates are unknown ([Carman et al, 1995]). These uncertainties are widely known, and we provide here an apparent EC50 for consideration. Measurements have been performed in triplicate with three different protein preparations. […]

ATX-γ [5] = target: T2, ATX-γ; experiment: Dose–response choline release assay; type: biochemical; conditions: LPC 18:1
Procedure: as §4, §5

ATX-γ [6] = target: T2, ATX-γ; experiment: Mode of inhibition analysis with increasing LPC 18:1; type: biochemical; set-up: Vmax: unit not given here
[7] = ref Hunault et al, 2008, cited from earlier work
[8] = no reference given; cited from earlier work

| Molecule | inhibition of ATX-β catalysis (ATX-β [1]) | ANOVA comparison with CTRL, ATX-β inhibition (ATX-β [1]) | inhibition of ATX-γ catalysis (ATX-γ [2]) | ANOVA comparison with CTRL, ATX-γ inhibition (ATX-γ [2]) | also measured |
| --- | --- | --- | --- | --- | --- |
| C=C(C)[C@@H]1CCC(C)=C[C@H]1c1c(O)cc(CCCCC)cc1O [CBD, cannabidiol] | weak inhibition | statistically significant differences | no observable inhibition | – | – |
| CCCCCn1cc(C(=O)c2cccc3ccccc23)c2ccccc21 [JWH018] | did not influence the catalytic activity | not significantly inhibited | did not influence the catalytic activity | not significantly inhibited | Ki (CB1; CB1, ref Aung et al, 2000): 9 ± 8 nM; Ki (CB2; CB2, ref Aung et al, 2000): 2.9 ± 2.7 nM |
| lysophosphatidic acid [LPA] | – | – | – | – | LPA1 internalization ([3]; LPA treatment of cells (1 µM LPA 18:1)): high LPA1 receptor internalization |
| CCCCC/C=C\C/C=C\C/C=C\C/C=C\CCCC(=O)NCCO [anandamide] | did not affect the catalysis | not significantly inhibited | did not affect the catalysis | not significantly inhibited | – |
| CCCCCc1cc2c(c(O)c1C(=O)O)[C@@H]1C=C(C)CC[C@H]1C(C)(C)O2 [Tetrahydrocannabinolic acid, tetrahydrocannabinolic acid] | < 50% | statistically significant differences | < 50% | – | – |
| CCCCC/C=C\C/C=C\C/C=C\C/C=C\CCCC(=O)OC(CO)CO [2-AG, 2-arachidonoylglycerol] | did not affect the catalysis | not significantly inhibited | did not affect the catalysis | not significantly inhibited | – |
| CCCCCc1cc(O)c2c(c1)OC(C)(C)C1=C2C[C@H](C)CC1 [6a10aTHC, 9(R)-Δ6a,10a-THC] | further increase in the magnitude of inhibition | statistically significant differences | further increase in the magnitude of inhibition | – | – |
| CCCCCc1cc(O)c2c(c1)OC(C)(C)[C@@H]1CCC(C)=C[C@@H]21 [THC, Δ^9-trans-tetrahydrocannabinol] | more than 50% | statistically significant differences | more than 50% | – | magnitude of inhibition (maximum inhibition) (ATX-β [4]): around 60%; type of inhibitor (ATX-β [4]): partial inhibitor; type of inhibitor (ATX-γ [5]): partial inhibitor; Vmax (ATX-γ [6]; 0.35 µM THC (8.5 without THC)): 7.3; Km (ATX-γ [6]; 0.35 µM THC (10.1 without THC)): 19.6 µM; Vmax (ATX-γ [6]; 0.7 µM THC (8.5 without THC)): 6.3; Km (ATX-γ [6]; 0.7 µM THC (10.1 without THC)): 29.9 µM; Vmax (ATX-γ [6]; 1.4 µM THC (8.5 without THC)): 5.0; Km (ATX-γ [6]; 1.4 µM THC (10.1 without THC)): 31.5 µM; mode of inhibition (ATX-γ [6]; ATX-γ, LPC 18:1): mixed-type inhibition; also recorded: mixed-type inhibitor; LPA1 internalization ([3]; 30 nM ATX, 150 µM LPC 18:1, 1 µM THC, paired t test P = 0.0008): significantly reduced LPA1 internalization; also recorded: reduced the number of endosomes internalized; LPA1 internalization ([3]; LPA in the presence of THC): LPA1 receptors were internalized; LPA1 internalization ([3]; THC alone (1 µM)): No internalization; inhibition of ATX-LPA signaling (LPA1 internalization) ([3]; higher LPC concentration, 400 µM LPC, P = 0.0068): not abolished; binding to CB1 (CB1; ref Pertwee, 2008): low nanomolar regime; binding to CB2 (CB2; ref Pertwee, 2008): low nanomolar regime; mean THC peak in serum ([7]; 69.4-mg THC dose, SD = 106.8): 190.4 ng/mL; serum concentration of THC, lower end of range in molar units ([7]; after a 49.1-mg THC dose, equals 59 ng/ml): 190 nM; serum concentration of THC, upper end of range in molar units ([7]; after a 49.1-mg THC dose, equals 421 ng/ml): 1300 nM; bound to plasma proteins [8]: 95–97% |
